Molecular target: T1, breast cancer resistance protein (BCRP) (Homo sapiens, UniProt Q9UNQ0)
T1 sequence (Q9UNQ0 1-655): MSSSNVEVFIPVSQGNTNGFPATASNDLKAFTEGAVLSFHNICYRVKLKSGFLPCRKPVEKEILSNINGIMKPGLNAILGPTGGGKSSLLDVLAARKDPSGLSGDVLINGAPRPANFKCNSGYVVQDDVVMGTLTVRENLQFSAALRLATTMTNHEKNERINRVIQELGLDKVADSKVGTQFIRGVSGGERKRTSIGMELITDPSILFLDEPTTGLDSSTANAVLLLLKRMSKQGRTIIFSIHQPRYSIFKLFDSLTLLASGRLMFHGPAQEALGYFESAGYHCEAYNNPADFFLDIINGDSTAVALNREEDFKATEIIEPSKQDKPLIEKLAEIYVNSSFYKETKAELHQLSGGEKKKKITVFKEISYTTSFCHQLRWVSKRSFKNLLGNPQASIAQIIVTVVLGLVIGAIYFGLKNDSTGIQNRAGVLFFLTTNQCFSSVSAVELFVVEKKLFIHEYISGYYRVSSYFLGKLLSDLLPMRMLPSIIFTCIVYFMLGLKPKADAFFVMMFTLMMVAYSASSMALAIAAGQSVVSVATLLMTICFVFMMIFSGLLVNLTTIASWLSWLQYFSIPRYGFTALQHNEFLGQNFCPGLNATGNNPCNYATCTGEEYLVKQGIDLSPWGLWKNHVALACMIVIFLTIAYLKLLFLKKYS
Assay: frontal displacement affinity chromatography
Type: binding
Settings: nmac-bcrp column

Structure (SMILES)	Kd [nM]
COc1ccc(-c2coc3cc(O)cc(O)c3c2=O)cc1 [Biochanin A]	1050
COc1cc([C@@H]2c3cc4c(cc3[C@@H](O[C@@H]3O[C@@H]5CO[C@@H](C)O[C@H]5[C@H](O)[C@H]3O)[C@H]3COC(=O)[C@H]23)OCO4)cc(OC)c1O [Etoposide]	4550
COc1ccc2c3c([nH]c2c1)[C@H](C=C(C)C)N1C(=O)[C@@H]2CCCN2C(=O)[C@@H]1C3 [FTC, Fumitremorgin C]	1630

From PMC3499775 (Journal of pharmaceutical and biomedical analysis, 2012)
